Activity calls are given as the source filed them.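 The calls were made as follows: active = AC50, the dose giving half-maximal effect, exceeds a fixed cutoff for a compound that rescues yeast growth under heat; inactive = the rest, inconclusive results apart.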
What follows are molecules tested on S. cerevisiae Burl-1 ts mutant growth, BacTiter-Glo, 38.5C 24 h (assay: growth induction of Burl-1 ts yeast mutant, dose response, counter-screen for SUMOylation pathway inhibitor project, whole organism, S. cerevisiae, luminescence (AID 463199)).
In the case of C=C(C)Cn1c(SCC(=O)N/N=C/c2ccccc2OCC(=O)O)nnc1-c1ccc(Br)cc1, the AC50 is reported as > 42 µM (inactive).
In the case of O=C1c2cccc3c(N4CCCCC4)ccc(c23)C(=O)N1CCO, the AC50 is reported as > 42 µM (inactive).
O=C(c1cc(N2C(=O)C3C4CCC(C4)C3C2=O)ccc1Cl)N1CCN(c2ccccc2)CC1 (stereo unspecified) was tested, and the AC50 was > 42 µM (inactive).
For c1ccc(-c2cc3cc4c(cc3cn2)OCO4)cc1, the AC50 was > 42 µM (inactive).
With O=C1CCC(C(=O)N2CCN(c3ccccc3)CC2)CN1CC1CCCCC1 (stereo unspecified) the AC50 was > 42 µM (inactive).
With Cc1c(NC(=O)C(C)Sc2nnc(-c3ccccc3)o2)c(=O)n(-c2ccccc2)n1C (stereo unspecified) the AC50 was > 42 µM (inactive).
In the case of CCC(=O)c1c[nH]c(C(=O)NCCCn2ccnc2)c1, the AC50 is reported as > 42 µM (inactive).
In the case of c1ccc(-c2nc(N3CCOCC3)c3ccccc3n2)nc1, the AC50 is reported as > 42 µM (inactive).
With CC(C)C(=O)Nc1ccc(NC(=S)NC(=O)c2ccccc2F)cc1 the AC50 was > 42 µM (inactive).
For COc1c(C)cc(S(=O)(=O)NC2CC(C)(C)NC(C)(C)C2)c(C)c1C, the AC50 was > 42 µM (inactive).
In the case of Cc1nc(CCNC(=O)c2ccccc2)cs1, the AC50 is reported as > 42 µM (inactive).
With O=C1C2CCCN2C(=S)N1C1CCCCC1 (stereo unspecified) the AC50 was > 42 µM (inactive).
Cc1ccc(S(=O)(=O)N(C)c2ccc(OC(=O)CN3C(=O)NC4(CCCC4)C3=O)cc2)cc1C was tested, and the AC50 was > 42 µM (inactive).
With Cc1cc(C)n2c(SCC(C)C)nnc2n1 the AC50 was > 42 µM (inactive).
In the case of CC(C)Cc1cc(CN2CCC(CO)(Cc3ccccc3)CC2)[nH]n1, the AC50 is reported as > 42 µM (inactive).
For Cc1ccc(S(=O)(=O)Oc2ccccc2N2C(=O)C3CC=CCC3C2=O)cc1 (stereo unspecified), the AC50 was > 42 µM (inactive).
For CN(C(=O)c1ccc(-c2nn(C)c(=O)c3ccccc23)cc1)C1CCCCC1, the AC50 was > 42 µM (inactive).
CC(=O)Nc1cc2nn(-c3ccccc3)nc2cc1Cl was tested, and the AC50 was > 42 µM (inactive).
COc1ccc(NC(=O)CCCc2ccccc2)cc1OC was tested, and the AC50 was 9.43 µM.
N#Cc1ccc(/C=C/C(=O)c2ccco2)cc1 was tested, and the AC50 was > 42 µM (inactive).
COc1ccccc1/C=C/C(=O)c1c2c(c(C)[nH]c1=O)CCCC2 was tested, and the AC50 was > 42 µM (inactive).
With NNC(=O)c1[nH]c2ccccc2c1-c1ccccc1 the AC50 was > 42 µM (inactive).
In the case of CC(C)(C)C1c2[nH]c3ccccc3c2CCN1Cc1cccc(OCCO)c1 (stereo unspecified), the AC50 is reported as > 42 µM (inactive).
With CCOC(=O)CSc1nc2ccccc2c(=O)n1CC(C)C the AC50 was > 42 µM (inactive).
In the case of COC(=O)c1ccc(/C=N/NC(=O)C(=O)NCC2CCCO2)cc1 (stereo unspecified), the AC50 is reported as > 42 µM (inactive).
For COc1ccc(-c2nc(NC(=O)CCNC(=O)c3ccco3)sc2C)cc1, the AC50 was > 42 µM (inactive).
CCOc1ccc(NC(=O)CSc2nnc(Cc3csc(C)n3)o2)cc1 was tested, and the AC50 was > 42 µM (inactive).
COc1ccc(-c2cc(=O)c3cc(O)ccc3o2)cc1 was tested, and the AC50 was > 42 µM (inactive).
For Cc1nc(NC(=O)CSc2nc(N)cc(N)n2)sc1C, the AC50 was > 42 µM (inactive).
With N#Cc1c(-c2ccco2)cc(-c2cccnc2)nc1N the AC50 was > 42 µM (inactive).
For COc1ccc(-c2nc(C#N)c(NC(C)c3ccccc3)o2)cc1OC (stereo unspecified), the AC50 was > 42 µM (inactive).
In the case of CCC(C(=O)Nc1cccnc1)c1ccccc1 (stereo unspecified), the AC50 is reported as > 42 µM (inactive).
For CC(=O)c1cccc(NC(=O)CN(c2cccc(F)c2)S(C)(=O)=O)c1, the AC50 was > 42 µM (inactive).
In the case of Cn1c(-c2ccc3c(c2)OCO3)cnc1NC(=O)CCC(=O)NCCc1ccccc1, the AC50 is reported as > 42 µM (inactive).
For CNC(=O)COC(=O)c1cc(-c2ccco2)nc2ccccc12, the AC50 was > 42 µM (inactive).
CC(NC(=O)CCc1nnc(-c2ccc(-c3ccccc3)cc2)o1)c1nc2ccccc2[nH]1 (stereo unspecified) was tested, and the AC50 was > 42 µM (inactive).
With CC(NC(=O)C1CCCCC1)C(=O)NC1=NCCS1 (stereo unspecified) the AC50 was > 42 µM (inactive).
In the case of N#CC1=C(N)Oc2c(ccc3ccccc23)C1c1cccs1 (stereo unspecified), the AC50 is reported as > 42 µM (inactive).
In the case of O=C1Nc2ccccc2/C1=C/c1ccc([N+](=O)[O-])cc1, the AC50 is reported as > 42 µM (inactive).
For CCOC(=O)c1cccc(NC(=O)C2CCCN(S(=O)(=O)c3c(C)n[nH]c3C)C2)c1 (stereo unspecified), the AC50 was > 42 µM (inactive).
In the case of CCCCOc1ccc(C(=O)Nc2ccc(CN3CCOCC3)cc2)cc1, the AC50 is reported as > 42 µM (inactive).
